Experimental data taken from patent US8563241B2 (Institut de Cardiologie de Montreal, priority 2009, dated 2013).

Assays:
[1] = Pilot genetic study of INR fluctuations in 324 post INR-stabilization atrial fibrillation patients by CYP4F2 rs2108622 and NR1I2 rs6772976 genotype; type: in vivo, human
Procedure: (§1) The study was focused on the post INR-stabilization period by excluding the first six months of therapy, and further excluded hospitalization periods. […] INR fluctuations were measured according to the Rosendaal method based on linear interpolation.
For the pilot genetic study, 324 patients with atrial fibrillation were selected, for whom therapy was started prior to Aug. 1, 2005, with a follow up of 36 months or more and with at most 70 years of age. […] Genotyping was conducted using the Sequenom technology.

[2] = Retrospective study of INR fluctuations outside the target therapeutic INR range in 1,615 patients of the MHI warfarin clinic (Rosendaal method); type: in vivo, human; details: post-stabilization follow up period (first six months and hospitalization periods excluded)
Procedure: as §1

CC(=O)CC(c1ccccc1)c1c(O)c2ccccc2oc1=O (stereo not shown) [warfarin]
average % of the time above the patient-specific target therapeutic INR range ([1]; patients with CYP4F2 rs2108622 CC genotype): 17.1%
average % of the time above the patient-specific target therapeutic INR range ([1]; patients with CYP4F2 rs2108622 CT genotype): 15.9%
average % of the time above the patient-specific target therapeutic INR range ([1]; patients with CYP4F2 rs2108622 TT genotype): 29.6%
time above target therapeutic INR range [2]: 17.2%
